Numbered stars: 1 amine (or outer) side, 2 acyl side, 3 side chain; on linkers, the order of the positions; unused ones are H or OH. Square brackets hold non-standard residues; d marks the D form. Peptide text beside a SMILES is read from it. β3hPhg = O=C(C[C@@H](N[*:1])c1ccccc1)[*:2]; ΔPro = O=C(O)[C@@H]1C=CCN1; Abu = CC[C@H](N)C(=O)O
Assay: Immunosuppressive activity in C57BL/6 mouse lymph node cells after 24 hrs by MTT assay
Type: functional
Conditions: C57BL/6, 24 h
`CC[C@@H]1NC(=O)C[C@H](c2ccccc2)NC(=O)[C@H](CC)NC(=O)C[C@H](c2ccccc2)NC(=O)[C@H](CO)NC1=O` gave an IC50 of 61.8 µM.
For `CC[C@@H]1NC(=O)C[C@H](c2ccccc2)NC(=O)[C@H](CO)NC(=O)[C@H](CC)NC(=O)[C@H]([C@H](C)O)NC1=O`, the IC50 was over 100 µM.
In the case of `CC[C@@H]1NC(=O)C[C@H](c2ccccc2)NC(=O)[C@H](CO)NC(=O)[C@H](CC)NC(=O)[C@H]([C@@H](C)O)NC1=O`, the IC50 is reported as over 100 µM.
Work on `CCCCCCC[C@@H]1NC(=O)[C@H](CC)NC(=O)C[C@H](c2ccccc2)NC(=O)[C@H](CO)NC(=O)[C@H](CC)NC1=O` yielded an IC50 of 65.2 µM.
Molecule `CC[C@@H]1NC(=O)[C@@H]2[C@@H](O)[C@@H](O)CN2C(=O)[C@H](CC)NC(=O)C[C@H](c2ccccc2)NC(=O)[C@H](CO)NC1=O` has an IC50 of over 100 µM.
`CC[C@@H]1NC(=O)C[C@H](c2ccccc2)NC(=O)[C@H](CO)NC(=O)[C@H](CC)NC(=O)[C@H](Cc2ccc(O)cc2)NC1=O` (cyclo([Abu]S[β3hPhg][Abu]Y)) gave an IC50 of over 100 µM.
Work on `CC[C@@H]1NC(=O)C[C@H](c2ccccc2)NC(=O)[C@H](CO)NC(=O)[C@H](CC)NC(=O)[C@H](C)NC1=O` (cyclo(A[Abu]S[β3hPhg][Abu])) yielded an IC50 of over 100 µM.
Work on `CC[C@@H]1NC(=O)C[C@H](c2ccccc2)NC(=O)[C@H](CO)NC(=O)[C@H](CC)NC(=O)[C@@H]([C@H](C)O)NC1=O` yielded an IC50 of 51.8 µM.
For `CC[C@@H]1NC(=O)C[C@H](c2ccccc2)NC(=O)[C@H](CO)NC(=O)[C@H](CC)NC(=O)[C@H](C(C)C)NC1=O` (cyclo([Abu]S[β3hPhg][Abu]V)), the IC50 was over 100 µM.
`CC[C@@H]1NC(=O)C[C@H](c2ccccc2)NC(=O)[C@H](CO)NC(=O)[C@H](CC)NC(=O)[C@H](CCCNC(=N)N)NC1=O` (cyclo([Abu]R[Abu]S[β3hPhg])) showed an IC50 of over 100 µM.
With `CC[C@@H]1NC(=O)C[C@H](c2ccccc2)NC(=O)[C@H](CO)NC(=O)[C@H](CC)NC(=O)[C@@H]([C@@H](C)O)NC1=O` the IC50 was 38.4 µM.
`CC[C@@H]1NC(=O)C[C@H](c2ccccc2)NC(=O)[C@H](CO)NC(=O)[C@H](CC)NC(=O)[C@H](CC(C)C)NC1=O` (cyclo([Abu]L[Abu]S[β3hPhg])) gave an IC50 of over 100 µM.
`CC[C@@H]1NC(=O)C[C@H](c2ccccc2)NC(=O)[C@H](CO)NC(=O)[C@H](CC)NC(=O)[C@H](Cc2c[nH]cn2)NC1=O` (cyclo([Abu]H[Abu]S[β3hPhg])) showed an IC50 of over 100 µM.
In the case of `CC[C@@H]1NC(=O)C[C@H](c2ccccc2)NC(=O)[C@H](CO)NC(=O)[C@H](CC)NC1=O`, the IC50 is reported as over 100 µM.
Work on `CC[C@@H]1NC(=O)C[C@H](c2ccccc2)NC(=O)[C@H](CO)NC(=O)[C@H](CC)NC(=O)[C@H]([C@H](C)OC(=O)c2ccc[nH]2)NC1=O` yielded an IC50 of over 100 µM.
Molecule `CC[C@@H]1NC(=O)[C@@H]2C=CCN2C(=O)[C@H](CC)NC(=O)C[C@H](c2ccccc2)NC(=O)[C@H](CO)NC1=O` (cyclo([Abu]S[β3hPhg][Abu][ΔPro])) has an IC50 of over 100 µM.
For `CC[C@@H]1NC(=O)[C@@H]2[C@H](Cl)[C@H](Cl)CN2C(=O)[C@H](CC)NC(=O)C[C@H](c2ccccc2)NC(=O)[C@H](CO)NC1=O`, the IC50 was 12.6 µM.
`CC[C@@H]1NC(=O)C[C@H](c2ccccc2)NC(=O)[C@H](CO)NC(=O)[C@H](CC)NC(=O)[C@H](CCCCN)NC1=O` (cyclo([Abu]K[Abu]S[β3hPhg])) gave an IC50 of over 100 µM.
